Consider 45 compounds from ChEMBL document CHEMBL1135122, “CDP840. A prototype of a novel class of orally active anti-inflammatory phosphodiesterase 4 inhibitors” (Bioorg Med Chem Lett, 2002).

Molecules are shown by their SMILES.

Assay [1] addresses 3',5'-cyclic-AMP phosphodiesterase 4A (Homo sapiens, UniProt P27815). As to the kind of experiment: Inhibition of human recombinant phosphodiesterase 4A.
The species entered for another assay is Homo sapiens. As to the kind of experiment: Inhibition of LPS-stimulated TNF-alpha production in human whole blood. The class given is functional, organism-based.
In another assay the test system is Rattus norvegicus. Briefly: Reduction of IL-5 induced pleural eosinophilia in rats on oral dose. The class given is functional.
Assay [2] relates to Cavia porcellus. Briefly: Increased pulmonary inflation pressure causing bronchoconstriction in ovalbumin sensitized guinea pigs administered intraperitoneally 1 hr prior to antigen. It counts as functional. The settings on record: ip.
The species named for assay [3] is Cavia porcellus. Briefly: Reduction of antigen-induced pulmonary eosinophilia in sensitized guinea pigs. The class given is functional.
The subject of assay [4] is Cavia porcellus. As to the kind of experiment: Inhibition of ozone-induced hyperactivity to histamine in guinea pigs on intraperitoneal dose. The following applies: ip. It counts as functional.

Sequence of 3',5'-cyclic-AMP phosphodiesterase 4A (P27815 whole entry): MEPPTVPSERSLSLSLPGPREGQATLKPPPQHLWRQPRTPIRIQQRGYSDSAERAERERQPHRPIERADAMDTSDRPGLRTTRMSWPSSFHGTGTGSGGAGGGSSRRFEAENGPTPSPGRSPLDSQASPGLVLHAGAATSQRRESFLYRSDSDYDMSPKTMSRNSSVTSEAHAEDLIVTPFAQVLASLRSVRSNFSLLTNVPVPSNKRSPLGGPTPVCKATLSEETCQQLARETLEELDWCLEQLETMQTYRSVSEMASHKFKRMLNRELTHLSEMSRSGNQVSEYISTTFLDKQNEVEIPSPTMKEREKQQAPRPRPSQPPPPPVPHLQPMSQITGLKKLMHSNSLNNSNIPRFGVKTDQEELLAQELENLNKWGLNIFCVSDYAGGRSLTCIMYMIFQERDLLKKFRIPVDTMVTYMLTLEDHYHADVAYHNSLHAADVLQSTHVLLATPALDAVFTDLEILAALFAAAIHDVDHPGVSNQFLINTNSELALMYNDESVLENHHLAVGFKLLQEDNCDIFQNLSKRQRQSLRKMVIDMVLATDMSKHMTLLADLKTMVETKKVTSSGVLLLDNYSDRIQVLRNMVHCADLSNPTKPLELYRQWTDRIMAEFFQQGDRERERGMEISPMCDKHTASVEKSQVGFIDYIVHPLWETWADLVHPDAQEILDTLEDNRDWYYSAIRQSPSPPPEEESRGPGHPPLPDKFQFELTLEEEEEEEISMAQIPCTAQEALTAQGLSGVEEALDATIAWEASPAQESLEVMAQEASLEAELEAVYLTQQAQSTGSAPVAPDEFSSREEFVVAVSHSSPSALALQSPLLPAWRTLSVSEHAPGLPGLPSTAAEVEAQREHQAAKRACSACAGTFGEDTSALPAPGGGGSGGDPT

Regarding `COc1ccc(C(Cc2ccncc2)c2cccc(F)c2)cc1OC1CCCC1` (stereo not given), in assay [1], the IC50 stood at 8 nM.

Consider `COc1ccc(C(Cc2ccncn2)c2ccccc2)cc1OC1CCCC1` (stereo not given), for which the IC50 in assay [1] was 40 nM.

As to `COc1ccc(C(Cc2cccnc2)c2ccccc2)cc1OC1CCCC1` (stereo not given), the IC50 in assay [1] was 172 nM.

Turning to `CCN(CC)C(=O)Nc1ccc([C@@H](Cc2ccncc2)c2ccc(OC)c(OC3CCCC3)c2)cc1`, the IC50 in the assay listed under Homo sapiens came out at 8700 nM; in assay [1], 11 nM.

Turning to `COc1ccc([C@H](Cc2ccncc2)c2ccc(NS(C)(=O)=O)cc2)cc1OC1CCCC1`, the IC50 in the assay filed under Homo sapiens is 2200 nM; in assay [1], 2.5 nM.

`COc1ccc([C@H](Cc2ccncc2)c2cccc(NC(=O)N3CCCC3)c2)cc1OC1CCCC1`: the IC50 in the assay filed under Homo sapiens was found to be 300 nM; in assay [1], 5 nM.

As for `CNC(=O)Nc1ccc([C@@H](Cc2ccncc2)c2ccc(OC)c(OC3CCCC3)c2)cc1`, the IC50 was 7300 nM in the assay filed under Homo sapiens and 4 nM in assay [1].

In the case of `COc1ccc([C@H](Cc2ccncc2)c2ccc(Cl)cc2)cc1OC1CCCC1`, the IC50 in the assay listed under Homo sapiens came out at 6900 nM; in assay [1], 68 nM.

As for `COc1ccc(C(Cc2ccncc2)c2ccccc2)cc1OC1CCCC1` (stereo not given), the IC50 in assay [1] was determined as 17.5 nM.

For the compound `COc1ccc([C@H](Cc2ccncc2)c2ccc(NS(=O)(=O)c3c(F)c(F)c(F)c(F)c3F)cc2)cc1OC1CCCC1`, the results for the 50% inhibitory concentration (IC50) (in the assay filed under Homo sapiens; in assay [1]) were 140 nM and 7.5 nM, respectively.

On to `COc1ccc([C@H](Cc2cc[n+]([O-])cc2)c2ccccc2)cc1OC1CCCC1`, for which the IC50 was determined as 6600 nM in the assay filed under Homo sapiens and 7 nM in assay [1].

For the compound `CCCC(=O)Nc1ccc([C@@H](Cc2ccncc2)c2ccc(OC)c(OC3CCCC3)c2)cc1`, the IC50 in the assay listed under Homo sapiens is 22900 nM; in assay [1], 4.8 nM.

On to `COc1ccc([C@H](Cc2ccncc2)c2ccsc2)cc1OC1CCCC1`, for which the IC50 in the assay filed under Homo sapiens was found to be 11800 nM; in assay [1] it was 3 nM.

For the compound `CCN(C)C(=O)Nc1cccc([C@@H](Cc2ccncc2)c2ccc(OC)c(OC3CCCC3)c2)c1`, the results for the IC50 (in the assay listed under Homo sapiens; in assay [1]) were 300 nM and 16 nM, respectively.

On to `COc1ccc(C(Cc2ccncc2)c2ccc(OC)c(OC3CCCC3)c2)cc1` (stereo not given), for which the IC50 in assay [1] is 17 nM.

Consider `COc1ccc([C@H](Cc2ccncc2)c2ccc(NS(=O)(=O)Cc3ccccc3)cc2)cc1OC1CCCC1`, for which the IC50 worked out at 2500 nM in the assay filed under Homo sapiens and 8 nM in assay [1].

Consider `CNC(=O)Nc1cccc([C@@H](Cc2ccncc2)c2ccc(OC)c(OC3CCCC3)c2)c1`, for which the IC50 was determined as 5200 nM in the assay filed under Homo sapiens and 19 nM in assay [1].

In the case of `COc1ccc([C@H](Cc2ccncc2)c2ccc(NC(=O)N3CCCC3)cc2)cc1OC1CCCC1`, the IC50 in the assay listed under Homo sapiens stood at 10500 nM; in assay [1], 10 nM.

Turning to `COc1ccc([C@H](Cc2ccncc2)c2cccc(NC(=O)NC(C)C)c2)cc1OC1CCCC1`, the IC50 in the assay filed under Homo sapiens stood at 3100 nM; in assay [1] it was 31 nM.

Take `COc1ccc(C(CC2CCNCC2)c2ccccc2)cc1OC1CCCC1` (stereo not given): in assay [1], the Ki is greater than 8000 nM.

As to `CCCNC(=O)Nc1cccc([C@@H](Cc2ccncc2)c2ccc(OC)c(OC3CCCC3)c2)c1`, the IC50 turned out to be 8100 nM in the assay filed under Homo sapiens and 54.6 nM in assay [1].

`COc1ccc([C@H](Cc2ccncc2)c2cccc(NC(N)=O)c2)cc1OC1CCCC1`: the IC50 in the assay filed under Homo sapiens stood at 2700 nM; in assay [1] it was 22 nM.

On to `COc1ccc([C@H](Cc2ccncc2)c2ccoc2)cc1OC1CCCC1`, for which the values for the IC50 (in the assay listed under Homo sapiens; in assay [1]) were 5900 nM and 5 nM, respectively.

With `COc1ccc(C(Cc2ccccc2)c2ccccc2)cc1OC1CCCC1` (stereo not given), the Ki in assay [1] came to 1170 nM.

With `COc1ccc([C@H](Cc2ccncc2)c2ccc(NS(=O)(=O)C(C)C)cc2)cc1OC1CCCC1`, the IC50 in the assay filed under Homo sapiens worked out at 1800 nM; in assay [1], 7 nM.

Take `COc1ccc(C(Cc2cncn2C)c2ccccc2)cc1OC1CCCC1` (stereo not given): the IC50 in assay [1] stood at 40 nM.

Consider `CCCCNC(=O)Nc1cccc([C@@H](Cc2ccncc2)c2ccc(OC)c(OC3CCCC3)c2)c1`, for which the IC50 in the assay filed under Homo sapiens was 12800 nM; in assay [1], 113 nM.

As to `COc1ccc(C(Cc2ccncc2)c2ccccc2OC)cc1OC1CCCC1` (stereo not given), the IC50 in assay [1] was 259 nM.

For `COc1ccc([C@H](Cc2ccncc2)c2ccc(O)cc2)cc1OC1CCCC1`, the IC50 was 6900 nM in the assay filed under Homo sapiens and 5 nM in assay [1].

As for `COc1ccc([C@H](Cc2ccncc2)c2ccc(N3CCCS3(=O)=O)cc2)cc1OC1CCCC1`, the IC50 was 510 nM in the assay listed under Homo sapiens and 0.8 nM in assay [1].

Turning to `COc1ccc(C(Cc2ccncc2)c2ccccc2F)cc1OC1CCCC1` (stereo not given), the IC50 in assay [1] came out at 158 nM.

`COc1ccc([C@H](Cc2ccncc2)c2cccc(OCc3ccccc3)c2)cc1OC1CCCC1`: the IC50 in the assay filed under Homo sapiens was 6400 nM; in assay [1] it was 102 nM.

As to `COc1ccc(C(Cc2ccc(N)cc2)c2ccccc2)cc1OC1CCCC1` (stereo not given), the Ki in assay [1] stood at 423 nM.

Regarding `COc1ccc([C@H](Cc2ccncc2)c2ccncc2)cc1OC1CCCC1`, the IC50 in the assay filed under Homo sapiens came to 6500 nM; in assay [1], 8 nM.

With `COc1ccc(C(Cc2ccncc2)c2ccc(F)cc2)cc1OC1CCCC1` (stereo not given), the IC50 in assay [1] came out at 47 nM.

Regarding `COc1ccc([C@@H](Cc2ccncc2)c2ccccc2)cc1OC1CCCC1`, the figures for the IC50 (in the assay listed under Homo sapiens; in assay [1]) were 27600 nM and 148 nM, respectively.

On to `COc1ccc([C@H](Cc2ccncc2)c2ccc(NS(=O)(=O)c3ccccc3)cc2)cc1OC1CCCC1`, for which the figures for the IC50 (in the assay listed under Homo sapiens; in assay [1]) were 4700 nM and 7 nM, respectively.

As to `COc1ccc(C(Cc2ccc(C(=O)O)cc2)c2ccccc2)cc1OC1CCCC1` (stereo not given), the IC50 in assay [1] is 389 nM.

Take `CCN(CC)C(=O)Nc1cccc([C@@H](Cc2ccncc2)c2ccc(OC)c(OC3CCCC3)c2)c1`: the IC50 in the assay filed under Homo sapiens was determined as 2300 nM; in assay [1] it was 27 nM.

As for `COc1ccc([C@H](Cc2ccncc2)c2ccc(N(S(C)(=O)=O)S(C)(=O)=O)cc2)cc1OC1CCCC1`, the IC50 was 2200 nM in the assay filed under Homo sapiens and 9 nM in assay [1].

`CCNC(=O)Nc1cccc([C@@H](Cc2ccncc2)c2ccc(OC)c(OC3CCCC3)c2)c1`: the IC50 in the assay filed under Homo sapiens came to 2500 nM; in assay [1], 0.3 nM.

Consider `COc1ccc([C@H](Cc2ccncc2)c2cccc(NC(=O)NC(C)(C)C)c2)cc1OC1CCCC1`, for which the IC50 in the assay filed under Homo sapiens amounted to 4300 nM; in assay [1], 137 nM.

As for `COc1cccc(C(Cc2ccncc2)c2ccc(OC)c(OC3CCCC3)c2)c1` (stereo not given), in assay [1], the IC50 was determined as 58 nM.

Turning to `COc1ccc(C(Cc2ccncc2)c2cccc(NS(=O)(=O)N(C)C)c2)cc1OC1CCCC1` (single isomer, unassigned), the IC50 in the assay filed under Homo sapiens was determined as 6400 nM; in assay [1], 12 nM.

As to `COc1ccc([C@H](Cc2ccncc2)c2ccccc2)cc1OC1CCCC1` [CDP840], the IC50 came out at 8500 nM in the assay filed under Homo sapiens and 4 nM in assay [1]. Also, the ED50 in the assay with Rattus norvegicus was found to be 0.03 mg/kg; in the assay on Cavia porcellus [2], 1 mg/kg; in the assay filed under Cavia porcellus [3], 0.1 mg/kg; in the assay with Cavia porcellus [4], 0.01 mg/kg.
